In brackets after ≈: the same amount, converted by molar mass. Read-outs that look alike come from different tables or passages of the source.
Key:
E. coli Mach1-T1R = test: MIC of 3-HP, microaerobic 96 well-plate, MOPS minimal media with supplements (Example 36); type: cell-based, Escherichia coli; conditions: increase of the 3-HP MIC, 24 h
Method: 3-HP was obtained from TCI America (Portland, Oreg.). Significant acrylic acid and 2-oxydipropionic contamination was observed via HPLC analysis. Samples were subsequently treated by diethyl ether extraction to remove acrylic acid and a portion of the 2-oxydipropionic contaminants. Samples were then neutralized with 10 M NaOH to a final pH of 7.0. […] The working stock solution was used for the selection, growth rates and MIC evaluations in this example.
Overnight cultures of strains were grown in 5 ml LB (with antibiotic where appropriate). A 1 v/v % was used to inoculate a 15 ml conical tube filled to the top with MOPS minimal media and capped. After the cells reached mid exponential phase, the culture was diluted to an OD600 of 0.200. The cells were further diluted 1:20 and a 10 ul aliquot was used to inoculate each well (˜10^4 cells per well).

B. subtilis = test: MIC evaluation of 3-HP, B. subtilis aerobic, M9 media + glutamate, 96 well-plate, 24 h (Common Methods); type: cell-based; conditions: for Avg 24 hr ΔOD600: 3HP tolerance, B. subtilis 168, M9 + glu + trp plus the named supplement(s); for % Increase Over Control: ΔOD600 with named supplement(s) vs B. subtilis 168 without supplement
Method: (§1) For MIC evaluations, the final results are expressed in chemical agent concentrations determined by analysis of the stock solution by HPLC (i.e., see Subsection IIIb).
(§2) The minimum inhibitory concentration (MIC) was determined aerobically in a 96 well-plate format. […] Media supplements were added according to levels reported in the Supplements Table where specified. Overnight cultures of strains were grown in triplicate in 5 mL LB (with antibiotic where appropriate). A 1% (v/v) inoculum was introduced into a 5 ml culture of M9 minimal media+glutamate.

E. coli = test: microbe, parasite or virus in culture; type: cell-based
Method: as §1
as §2, with “Table,” for “Table”, “media.” for “media+glutamate.”

[1] = system: Yeast strains (S288C background); test: microbe, parasite or virus in culture; type: cell-based, Saccharomyces cerevisiae
Method: The minimum inhibitory concentration (MIC) was determined aerobically in a 96 well-plate format. […] Media supplements were added according to levels reported in the Supplements Table, where specified. Overnight cultures of strains were grown in triplicate in 5 mL SD media with vitamins (Methods in Enzymology vol. 350, page 17 (2002)). A 1% (v/v) inoculum was introduced into a 5 ml culture of SD minimal media without vitamins. After the cells reached mid-exponential phase, the culture was diluted to an OD600 of 0.200. The cells were further diluted 1:5 and a 10 μL aliquot was used to inoculate each well of a 96 well plate (˜10^4 cells per well) to total volume of 100 uL. […] Plates were incubated for 72 hours at 30 C.

[2] = system: Yeast strains (S288C background); test: microbe, parasite or virus in culture; type: cell-based, Saccharomyces cerevisiae; remark: listed apart in the source
Method: The minimum inhibitory concentration (MIC) was determined anaerobically in a 96 well-plate format. […] A 1% (v/v) inoculum was introduced into a 5 ml culture of SD minimal media without vitamins. After the cells reached mid-exponential phase, the culture was diluted to an OD600 of 0.200. The cells were further diluted 1:5 and a 10 μL aliquot was used to inoculate each well of a 96 well plate (˜10^4 cells per well) to total volume of 100 uL. […] Plates were incubated for 72 hours at 30 C. […] Plates were sealed in biobag anaerobic chambers that contained gas generators for anaerobic conditions and incubated for 72 hours at 30 C.

MACH1-T1R = test: MIC, microaerobic 96 well-plate, MOPS minimal media, IroK expression studies (Example 45); type: cell-based, E. coli; conditions: for MIC of other organic acids of similar molecular makeup on IroK expression: IroK expressed from pKK223-3
Method: The two oligonucleotides were added in a 1:1 ratio and annealed according to standard methodology in a thermal cycler. Ligation of the annealed primer product with the pKK223-3 expression vector (SEQ ID NO:008, Pharmacia, Piscataway, N.J.) was performed with T4 Ligase (Invitrogen, Carlsbad, Calif.) and incubated at 25° C. overnight. The ligation product was then electroporated into competent MACH1™-T1^R, plated on LB+ampicillan, and incubated at 37° C. for 24 hours. Plasmids were isolated and confirmed by purification and subsequent restriction digest and sequencing (Macrogen, Rockville, Md.). MICs were then determined corresponding to 1 mM IPTG induction.
The minimum inhibitory concentration (MIC) was determined microaerobically in a 96 well-plate format. Overnight cultures of strains were grown in 5 mL LB (with antibiotic where appropriate). A 1% (v/v) inoculum was introduced into a 15 ml culture of MOPS minimal media. After the cells reached mid-exponential phase, the culture was diluted to an OD600 of 0.200. The cells were further diluted 1:20 and a […] aliquot was used to inoculate each well of a 96 well plate (˜10^4 cells per well).

E. coli K12 [3] = test: microbe, parasite or virus in culture; conditions: Escherichia coli, K12, 24 h, read-out: Minimum inhibitory concentration (MIC) of 3-HP for E. coli K12 in M9 minimal media supplemented with the substance
BX3_0194 = test: 3-HP production by BX3_0194 in SM3 medium without and with 10 μg/ml cerulenin; type: cell-based, E. coli
Method: All data are the average of triplicate cultures.
Under these conditions, the specific productivity after 24 hours is 1.3 g 3HP per gDCW.

BX3_0195 = test: 3-HP production by BX3_0195 in SM3 medium without and with 10 μg/ml cerulenin; type: cell-based, E. coli
Method: Cultures were started from freezer stocks by standard practice (Sambrook and Russell, 2001) into 50 mL of LB media plus 100 μg/mL ampicillin and grown to stationary phase overnight at 37° C. with rotation at 225 rpm. Five ml of this culture were transferred to 100 ml of SM3 media plus 40 g/L glucose, 100 μg/ml ampicillin, and 1 mM IPTG in triplicate 250-ml baffled flasks and incubated at 37° C., 225 rpm. […] Dry cell weight (DCW) is calculated as 0.33 times the measured OD600 value, based on baseline DCW to OD600 determinations. All data are the average of triplicate cultures.

BX3_0206 = test: 3-HP production by BX3_0206 in SM3 medium without and with 10 μg/ml cerulenin; type: cell-based, E. coli
Method: All data are the average of triplicate cultures. […] Under these conditions, the specific productivity after 24 hours is […] 3HP per gDCW.

E. coli K12 [4] = conditions: aerobic, 24 h; putrescine, cadaverine, spermidine 0.1 g/L, sodium bicarbonate 20 mM; value is the 3-HP concentration
[5] = 24 hr, SM3 medium, presence of 10 μg/ml cerulenin

O=C(O)c1cccc(O)c1O [2,3-didyroxybenzoic acid, 2,3-dihydroxybenzoic acid]
MIC increase resulting from supplementation (E. coli Mach1-T1R): 33%

O=C(O)O [Bicarbonate]
Avg 24 hr ΔOD600 (B. subtilis): 0.06 | % Increase Over Control (B. subtilis): 56%

O=C(O)CC(O)(CC(=O)O)C(=O)O [Citrate]
Avg 24 hr ΔOD600 (B. subtilis): 0.30 | % Increase Over Control (B. subtilis): 674%

CSCC[C@H](N)C(=O)O [Methionine (B)]
% Increase Over Control (E. coli): 36% | average MIC Assay Result (g/L 3-HP) (E. coli): 38 g/L 3-HP | % Increase Over Control [1]: 59% | % Increase Over Control [2]: 167%

CSCC[C@H](N)C(=O)O [Methionine]
Avg 24 hr ΔOD600 (B. subtilis): 0.15 | % Increase Over Control (B. subtilis): 282%

O=C(O)C1=C[C@@H](O)[C@@H](O)[C@H](O)C1 [Shikimate (A)]
average MIC Assay Result (g/L 3-HP) (E. coli; MIC of 3-HP for strain BW25113, M9 media with the named supplement(s), aerobic, 24-hour MIC evaluation): 28 g/L 3-HP | % Increase Over Control (E. coli; increase of 3-HP MIC over BW25113 in M9 without supplements, M9 media with the named supplement(s), aerobic): 3% | % Increase Over Control ([1]; 3-HP MIC with named supplement(s) vs S288C in SD without supplement, aerobic): 78% | average MIC Assay Result (g/L 3-HP) ([1]; MIC of 3-HP, S288C, SD media plus the named supplement(s), aerobic): 80 g/L | % Increase Over Control ([2]; 3-HP MIC with named supplement(s) vs S288C in SD without supplement, anaerobic): 60% | average MIC Assay Result (g/L 3-HP) ([2]; MIC of 3-HP, S288C, SD media plus the named supplement(s), anaerobic): 60 g/L

CC(=O)O [acetic, acetic acid]
MIC of other organic acids of similar molecular makeup on IroK expression (MACH1-T1R): unchanged

C=CC(=O)O [acrylic, acrylic acid]
MIC of other organic acids of similar molecular makeup on IroK expression (MACH1-T1R): unchanged

NCCCCCN [cadaverine]
MIC (E. coli K12 [3]): 30 mg/mL (≈ 294 mM)

C/C=C/C/C=C/CCC(=O)[C@H]1O[C@H]1C(N)=O [cerulenin]
specific productivity after 24 hours (BX3_0194): 1.3 g 3HP per gDCW | 3HP (BX3_0194; 4 hr): 0.003 g/L | OD600 (BX3_0194; 4 hr): 1.3 | 3HP (BX3_0194; 6 hr): 0.14 g/L | OD600 (BX3_0194; 6 hr): 2.6 | 3HP (BX3_0194; 8 hr): 0.43 g/L | OD600 (BX3_0194; 8 hr): 3.1 | 3HP (BX3_0194; 24 hr): 1.43 g/L | OD600 (BX3_0194; 24 hr): 3.3 | specific productivity after 24 hours (BX3_0195): 0.54 g 3HP per gDCW | 3HP (BX3_0195; 4 hr): 0.003 g/L | OD600 (BX3_0195; 4 hr): 0.97 | 3HP (BX3_0195; 6 hr): 0.07 g/L | OD600 (BX3_0195; 6 hr): 1.57 | 3HP (BX3_0195; 8 hr): 0.31 g/L | OD600 (BX3_0195; 8 hr): 2.36 | 3HP (BX3_0195; 24 hr): 1.17 g/L | OD600 (BX3_0195; 24 hr): 6.59 | 3HP (BX3_0206; [5]): 0.43 g/L | OD600 (BX3_0206; [5]): 6.4 | specific productivity after 24 hours (BX3_0206; BX3_0206, SM3 medium, 10 μg/ml cerulenin): 0.20 g 3HP per gDCW

Cl.NC1CCSC1=O (stereo not drawn) [homocysteine thiolactone hydrochloride]
MIC increase resulting from supplementation (E. coli Mach1-T1R): 60%

N[C@@H](CCO)C(=O)O [homoserine]
MIC increase resulting from supplementation (E. coli Mach1-T1R): 33%

CC(O)C(=O)O (stereo not drawn) [lactic, lactic acid]
MIC of other organic acids of similar molecular makeup on IroK expression (MACH1-T1R): unchanged

CCC(=O)C(=O)O [oxobutanoate]
MIC increase resulting from supplementation (E. coli Mach1-T1R): 7%

Nc1ccc(C(=O)O)cc1 [p-aminobenzoate]
Avg 24 hr ΔOD600 (B. subtilis): 0.07 | % Increase Over Control (B. subtilis): 89%

Nc1ccc(C(=O)O)cc1 [p-aminobenzoic acid]
MIC increase resulting from supplementation (E. coli Mach1-T1R): 7%

NNC(=O)c1ccc(O)cc1 [p-hydroxybenzoic acid hydrazide]
MIC increase resulting from supplementation (E. coli Mach1-T1R): 33%

N[C@@H](Cc1ccccc1)C(=O)O [phenylalanine]
MIC increase resulting from supplementation (E. coli Mach1-T1R): 33%

NCCCCN [putrescine]
MIC (E. coli K12 [3]): 40 mg/mL (≈ 454 mM)

Cc1ncc(CO)c(CO)c1O.Cl [pyridoxine hydrochloride]
MIC increase resulting from supplementation (E. coli Mach1-T1R): 0%

O=C([O-])O.[Na+] [sodium bicarbonate]
Minimum inhibitory concentration (MIC) of 3-HP for E. coli K12 in M9 minimal media supplemented with the substance (E. coli K12 [4]): 30 g/L

NCCCCNCCCN [spermidine]
Avg 24 hr ΔOD600 (B. subtilis): 0.09 | % Increase Over Control (B. subtilis): 140% | MIC (E. coli K12 [3]): 40 mg/mL (≈ 275 mM)

C[C@@H](O)[C@H](N)C(=O)O [threonine]
MIC increase resulting from supplementation (E. coli Mach1-T1R): 3%

N[C@@H](Cc1c[nH]c2ccccc12)C(=O)O [tryptophan]
MIC increase resulting from supplementation (E. coli Mach1-T1R): 33%

N[C@@H](Cc1ccc(O)cc1)C(=O)O [tyrosine]
MIC increase resulting from supplementation (E. coli Mach1-T1R): 40%

MKPALRDFIAIVQERLASVTA [IroK]
fold increase in MIC of 3-HP on increased expression of IroK (MACH1-T1R; expressed from pKK223-3, 1 mM IPTG, microaerobic, MOPS minimal media, 24 h): > 2 fold
